Experimental data published in patent US9284271B2, “Compounds for the treatment of neurodegenerative diseases” (Katholieke Universiteit Leuven, K.U. Leuven R&D, priority 2010, dated 2016).

Test system: M17-TAU P301L cells
Test: Tau-induced toxicity experiment: LDH leakage of retinoic acid incubated M17-TAU P301L cells
Format: cell-based
Conditions: Homo sapiens, Neuroblastoma cell, 168 h; reduction of LDH activity of retinoic acid incubated M17-TAU P301L neuroblastoma cells; 7 days incubation; Promega Cytotox 96 assay
Text: A TAU expression plasmid was constructed by sub-cloning the cDNA of human TAU-P301L (encoding for TAU with proline 301 substituted by a leucine residue) into mammalian expression vector pcDNA3.1 resulting in plasmid pcDNA3.1-TAU P301L. Plasmids pcDNA3.1 and pcDNA3.1-TAU P301L were transfected to human neuroblastoma cells ([…]; ATCC No. CRL-2267) and independent clonal lines with the plasmids stably integrated into the genome were selected. […] Expression of the TAU P301L genes in the cell lines was confirmed by Western analysis.
In degenerated or dead cells lactate dehydrogenase (LDH) is leaked out of the cells into the extracellular environment due to a loss of plasma-membrane integrity. This principle was used to determine cytotoxicity by quantifying the level of leaked LDH into the growth medium.
The detailed method for determining TAU cytotoxicity was as follows: From appropriate precultures of M17-3.1 and M17-TAU(P301L) cells were seeded at 2500 cells/cm2 in Optimem Reduced Serum without phenol red (Gibco, Cat. 31985-047) supplemented with 1% fetal calf serum, 1 mM sodium pyruvate, 1× non-essential amino acids, 500 μg/ml G418 0.5× antibiotic/antimycotic. After 3 h of incubation at 37° C./5% CO2 1 volume of Optimem Reduced Serum (same as described above; except without fetal calf serum) supplemented with 2.5 μM retinoic acid (RA) was added. The cells were further incubated for 7 days. Subsequently, LDH activity was determined using Promega Cytotox 96 Non-Radioactive cytotoxicity assay, (Cat. G1780) according the supplier's instructions.
The M17-TAU P301L cell line made it possible to assess the ability of novel compounds to counteract TAU cytotoxicity. […] These measurements were used to calculate EC50 values of table 2.
Exemplary compounds of the present invention are shown in table 2, with their chemical name and their EC50 value (expressed in nM) as determined from example 75 in the Tau-induced toxicity experiment.

| SMILES | EC50 |
| --- | --- |
| O=C(NCCc1c[nH]c2ccc(Cl)cc12)c1cccc(-c2ccc(C(F)(F)F)cc2)c1 [Cpd068, N-(2-(5-chloro-1H-indol-3-yl)ethyl)-4′-(trifluoromethyl)biphenyl-3-carboxamide] | 367 nM |
| Cc1cccc(C)c1-c1cccc(C(=O)NCCc2c[nH]c3ccc(Cl)cc23)c1 [Cpd070, N-(2-(5-chloro-1H-indol-3-yl)ethyl)-2′,6′-dimethylbiphenyl-3-carboxamide] | 606 nM |
| Cc1ccc(-c2ccccc2C(=O)NCCc2c[nH]c3ccc(Cl)cc23)cc1C [Cpd071, N-(2-(5-chloro-1H-indol-3-yl)ethyl)-3′,4′-dimethylbiphenyl-2-carboxamide] | 546 nM |
| O=C(NCCc1c[nH]c2ccc(Cl)cc12)c1ccc(-c2ccc(C(F)(F)F)cc2)cc1 [Cpd074, N-(2-(5-chloro-1H-indol-3-yl)ethyl)-4′-(trifluoromethyl)biphenyl-4-carboxamide] | 200 nM |
| O=C(NCCc1c[nH]c2ccc(Cl)cc12)c1ccc(-c2ccccc2)nn1 [Cpd075, N-(2-(5-chloro-1H-indol-3-yl)ethyl)-6-phenylpyridazine-3-carboxamide] | 81 nM |
